The values below come from ChEMBL document CHEMBL4673389 (ACS Med Chem Lett, 2021).

The structures appear in SMILES notation. Calls of active or inactive are those of the source. The rule behind the calls is not given here.

The target of the first assay is T1, Cereblon isoform 4 (Magnetospirillum gryphiswaldense, UniProt A4TVL0).
T1 sequence (A4TVL0 whole entry): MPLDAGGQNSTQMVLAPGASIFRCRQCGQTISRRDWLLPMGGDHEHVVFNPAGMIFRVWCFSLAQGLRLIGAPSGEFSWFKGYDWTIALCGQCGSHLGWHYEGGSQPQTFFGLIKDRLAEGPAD
In words: Binding affinity to Magnetospirillum gryphiswaldense cereblon isoform 4 by measuring baseline corrected normalized fluorescence by MST based assay.
With `O=C1CCC(=O)N1` [SUCCINIMIDE], the IC50 (as a rule, the midpoint of a concentration-inhibition curve) came out at 3.53 µM and the affinity, expressed as Ki, was 0.642 µM.

For a further assay, the target named is T2, Protein cereblon (Homo sapiens, UniProt Q96SW2). In words: Binding affinity to human CRBN-thalidomide binding domain expressed in Escherichia coli by measuring baseline corrected normalized fluorescence by MST based assay.
Turning to `Nn1ccc(=O)[nH]c1=O`, the IC50 was 84.8 µM; the Ki (as a rule, the dissociation constant of the complex between target and ligand, obtained from inhibition or displacement) was 40.7 µM.

With `CN1CC(=O)NC1=O`, the IC50 was 137 µM and affinity was put at a Ki of 67.8 µM.

In turn, `O=c1cc[nH]c(=O)[nH]1` [URACIL] registered an IC50 of 415 µM and a Ki of 212 µM.

`COc1ccc(C2CNC(=O)C2)cc1OC1CCCC1` (stereo unspecified) [ROLIPRAM] gave an IC50 of 202 µM and a Ki of 102 µM.

With `O=C1CN(/N=C/C=C/c2ccc([N+](=O)[O-])o2)C(=O)N1` [FURAZIDIN], the IC50 was above 1000 µM.

`COc1c(-c2ccc3cc(NS(C)(=O)=O)ccc3c2)cc(-n2ccc(=O)[nH]c2=O)cc1C(C)(C)C` [DASABUVIR] yielded an IC50 of 15.6 µM and a Ki of 4.71 µM.

Turning to `O=c1ccn([C@@H]2O[C@H](COP(=O)(O)O)[C@@H](O)[C@H]2O)c(=O)[nH]1`, the IC50 was above 5000 µM.

With `O=C1CCC(=O)N1` [SUCCINIMIDE], the IC50 came out at 22.3 µM and the affinity corresponds to a Ki of 8.19 µM.

`O=C1CNC(=O)N1` [HYDANTOIN] showed an IC50 of 421 µM and a Ki of 216 µM.

Regarding `O=C1CN(/N=C/c2ccccc2)C(=O)N1`, the result was inactive.

In turn, `NN1CC(=O)NC1=O` returned an IC50 of 447 µM and a Ki of 229 µM.

For the compound `O=C1CN(/N=C/c2ncc(-c3ccc(Br)cc3)o2)C(=O)N1`, the outcome was inactive.

In turn, `O=C1CNC(=S)N1` [THIOHYDANTOIN] returned an IC50 of 332 µM and a Ki of 169 µM.

Take `O=C1CNCN1`: the IC50 was above 5000 µM.

As to `O=C1CN(/N=C/c2ccccc2[N+](=O)[O-])C(=O)N1`, the result was inactive.

For `CC(C)OC(=O)[C@H](C)N[P@](=O)(OC[C@H]1O[C@@H](n2ccc(=O)[nH]c2=O)[C@](C)(F)[C@@H]1O)Oc1ccccc1` [SOFOSBUVIR], the IC50 is above 1000 µM.

Take `O=C1CN(/N=C/c2ccc([N+](=O)[O-])o2)C(=O)N1`: the result was inactive.

`O=c1ccn([C@@H]2O[C@H](CO)[C@@H](O)[C@H]2O)c(=O)[nH]1` [URIDINE] came in with an IC50 of 757 µM and a Ki of 390 µM.

In the next assay the target is T2, Protein cereblon. The assay can be described thus: Competitive binding affinity to human CRBN-thalidomide binding domain expressed in Escherichia coli by FRET assay.
`C[S+](C)[O-]` [DIMETHYL SULFOXIDE] came in with a Ki of 137 µM.
